Patent publication US12553892B2, “Assays for antimicrobial activity and applications thereof” (PRESIDENT AND FELLOWS OF HARVARD COLLEGE, priority 2013, dated 2026)

What was measured:
[1] = tested on: E. cloacae; assay: Antibiotic treatment of E. cloacae tracked by FcMBL ELLecSA detection of MAMPs; settings: for susceptibility of E. cloacae to the antibiotic: as stated for the test pathogen; for treatment efficacy from increase or spike in ELLecSA signal over time: 24-hr time course, E. cloacae 10e8 CFU/ml, 1 mg/ml antibiotic
[2] = tested on: clinical isolate of E. coli; assay: Antibiotic treatment of clinical isolate of E. coli, MAMP detection by ELLecSA; type: cell-based; settings: FIG. 16D strain
Experimental: FIGS. 16A-16E show lysing microbes by antibiotic treatment to increase MAMPs for FcMBL-coated bead capture and ELLecSA detection. In FIG. 16A, FcMBL coated beads were used to detect the presence of MAMPs from a clinical isolate of Enterobacter cloacae after 4 hour treatments of cefepime and meropenem. Detection of MAMPs was done by ELLecSA using rhMBL-hrp. In FIG. 16B, FcMBL coated beads were used to detect the presence of MAMPs from a clinical isolate of Salmonella typhimurium after 4 hour treatments of cefepime. Detection of MAMPs was done by ELLecSA using rhMBL-hrp. In FIG. 16C, FcMBL coated beads were used to detect the presence of MAMPs from a clinical isolate of E. coli after 4 hour treatment of cefepime and amikacin. Detection of MAMPs was done by ELLecSA using rhMBL-hrp. In FIG. 16D, FcMBL coated beads were used to detect the presence of MAMPs from a clinical isolate of E. coli after 4 hour treatment of cefepime and amikacin. Detection of MAMP's was done by ELLecSA using rhMBL-hrp. […]. Time course antibiotics were administered. Optimal MAMP detection occurred at 4 hours with 100 ug/mL cefepime.

[3] = tested on: E. coli ATCC 8739; assay: In vivo antibiotic efficacy by ELLecSA in rats infected intraperitoneally; settings: for ELLecSA levels, increase over baseline (no antibiotic): rats, 2e9 CFU i.p., antibiotic 100 μg/kg at 4 hours, terminal blood draw 8 hours after infection; for ELLecSA signal in treated group vs sham treatment: wistar rats, treatment four hours after infection, blood draw after another four hours
[4] = tested on: amp-C mutant Enterobacter cloacae; assay: Time course antibiotic treatment of amp-C mutant Enterobacter cloacae, MAMP detection by ELLecSA; type: cell-based; settings: 100 μg/mL antibiotic

SMILES: CC(=O)OCC1=C(C(=O)O)N2C(=O)[C@@H](NC(=O)Cc3cccs3)[C@H]2SC1 [Cefalotin]
- susceptibility of E. cloacae to the antibiotic [1]: naturally resistant

SMILES: NCC[C@H](O)C(=O)N[C@@H]1C[C@H](N)[C@@H](O[C@H]2O[C@H](CN)[C@@H](O)[C@H](O)[C@H]2O)[C@H](O)[C@H]1O[C@H]1O[C@H](CO)[C@@H](O)[C@H](N)[C@H]1O [amikacin]
- susceptibility of the E. coli strain [2]: sensitive

SMILES: Cc1nnc(SCC2=C(C(=O)O)N3C(=O)[C@@H](NC(=O)Cn4cnnn4)[C@H]3SC2)s1 [cefazolin]
- treatment efficacy from increase or spike in ELLecSA signal over time [1]: ineffective
- susceptibility of E. cloacae to the antibiotic [1]: resistant

SMILES: CO/N=C(\C(=O)N[C@@H]1C(=O)N2C(C(=O)[O-])=C(C[N+]3(C)CCCC3)CS[C@H]12)c1csc(N)n1 [cefepime]
- susceptibility of the E. coli strain [2]: intermediate susceptibility
- ELLecSA levels, increase over baseline (no antibiotic) [3]: six
- ELLecSA signal in treated group vs sham treatment [3]: significant increase

SMILES: CC(C)(O/N=C(\C(=O)N[C@@H]1C(=O)N2C(C(=O)[O-])=C(C[n+]3ccccc3)CS[C@H]12)c1csc(N)n1)C(=O)O [ceftazidime]
- susceptibility of amp-C mutant E. cloacae [4]: resistant

SMILES: CO/N=C(\C(=O)N[C@@H]1C(=O)N2C(C(=O)O)=C(CSc3nc(=O)c(=O)[nH]n3C)CS[C@H]12)c1csc(N)n1 [ceftriaxone]
- treatment efficacy from increase or spike in ELLecSA signal over time [1]: effective
- time to MAMP release after addition of the active antibiotic ([1]; about 5e7 CFU Enterobacter cloacae): ≤ 30 min
- susceptibility of E. cloacae to the antibiotic [1]: susceptible

SMILES: C[C@@H](O)[C@H]1C(=O)N2C(C(=O)O)=C(S[C@@H]3CN[C@H](C(=O)N(C)C)C3)[C@H](C)[C@H]12 [meropenem]
- ELLecSA levels, increase over baseline (no antibiotic) [3]: 2 fold
- ELLecSA signal in treated group vs sham treatment [3]: significant increase
